Assays:
Assay type in all cases: cell-based
[1] = tested on: non-sterile calcium carbonate slurry (H90), environmental bacteria; assay: Example 3 preservation efficacy: H60 slurry with industrial grade urea solution, non-sterile H90 inoculum, TVC; settings: industrial grade urea 5.5%, calcium carbonate 69%, water 25.5% w/w, 30° C.
Protocol: (§1) All quoted bacterial counts (Total viable counts (TVC) values), unless otherwise indicated, are given in cfu/ml and determined after at least 2 days following plate-out and incubation at 30° C. and in accordance with the counting method described in “Bestimmung von aerobe mesophilen Keimen”, Schweizerisches Lebensmittelbuch, chapter 56, section 7.01, edition of 1985, revised version of 1988.
(§2) Unless otherwise stated, per tryptic soy agar plate (TSA, prepared using BD 236950) 0.1 ml of a solution or suspension is plated. Counts from 10000 cfu/ml to 99999 cfu/ml are reported as >1E4 cfu/ml. Counts from 100000 cfu/ml to 999999 cfu/ml are reported as >1E5 cfu/ml. Counts above 1000000 cfu/ml are reported as >1E6 cfu/ml.
(§3) Non-sterile slurries (H60 or H90) contain contamination with environmental bacteria at a TVC>100000 cfu/ml. The contamination originates spontaneously and a bacterial burden of at least>100000 cfu/ml is confirmed prior use as inoculum by TVC. The following bacterial species are known to occur, as identified by 16S RNA sequencing or MALDI-TOF-MS analysis: Rhizobium radiobacter, Brevundimonas intermedia, Brevundimonas diminiuta, Sphingomonas sp., Pseudomonas stutzeri, Pseudomonas sp., Comomonas aquatic.
(§4) 50 g sterile calcium carbonate slurry (H60) with a solid content of 77.3 wt.-%, based on the total weight of the H60 slurry is supplemented with industrial grade 50% (w/w) urea solution (Yara Canda Inc.) or water to different final concentrations. The industrial grade contained natural resident (i.e. bacteria in a non-growing state) bacteria. The bacterial of the industrial urea burden is 5 cfu/3 ml as determined by TVC. The species are identified by characterizing the grown colonies from the TVC by 16 S RNA sequencing, known to the person skilled in the art.
(§5) The samples are further artificially inoculated with 1 ml non-sterile calcium carbonate slurry (H60), 1 ml non-sterile calcium carbonate slurry (H90), 0.02 ml overnight culture of Escherichia coli (DSMZ 46295) and 0.02 ml overnight culture Pseudomonas putida. The control sample are not inoculated. […]

[2] = tested on: Escherichia coli (DSMZ 46295); assay: Example 2 preservation efficacy: H60 slurry with 61 wt.-% urea solution, E. coli inoculum, TVC
Protocol: as §1, §2
For the preparation of inoculum with a single bacterial species (for example Escherichia coli (DSMZ 46295) or Pseudomonas putida), bacteria are spread onto Tryptic soy broth agar (BD, 236950) by dilution streaking followed by incubation at 30° C. for at least 24 h until colonies appear. Overnight cultures are generated by inoculation of 3 ml Tryptic soy broth (Fluka 22092) with a single colony followed incubation with agitation at […] at 30° C. for 24 h.
(§6) 50 g sterile slurry H60 with a solid content of 76.5 wt.-%, based on the total weight of the H60 slurry is supplemented with different amounts of 61 wt.-% urea solution or water. The samples are then inoculated with 1 ml non-sterile calcium carbonate slurry (H60), 1 ml non-sterile calcium carbonate slurry (H90), 0.02 ml overnight culture of Escherichia coli (DSMZ 46295) and 0.02 ml overnight culture of Pseudomonas putida. The control samples are not inoculated. Samples are incubated at 30° C. and the TVC and pH are determined at various time points (0 day, 1 day, 4, days, 8 days, 9 days and/or 13 days).

[3] = tested on: non-sterile calcium carbonate slurry (H60), environmental bacteria; assay: Example 2 preservation efficacy: H60 slurry with 61 wt.-% urea solution, non-sterile H60 inoculum, TVC; settings: 30° C.
Protocol: as §1, §2, §3, §6

[4] = tested on: non-sterile calcium carbonate slurry (H60), environmental bacteria; assay: Example 4 preservation efficacy: H60 slurry with 61% (w/w) urea solution, non-sterile H60 inoculum, TVC; settings: 30° C.
Protocol: as §1, §2, §3
50 g sterile calcium carbonate slurry (H60) with a solid content of 78.3 wt.-%, based on the total weight of the H60 slurry are supplemented with 61% (w/w) urea solution to different final concentrations. The samples are inoculated with 1 ml non-sterile calcium carbonate slurry (H60). Samples are incubated at 30° C. and TVC and pH are determined at various time points (0 day, 1 day, 4, days, 11 days).

[5] = tested on: non-sterile calcium carbonate slurry (H90), environmental bacteria; assay: Example 1 preservation efficacy: sterile H90 slurry with dry urea, up to three inoculations with non-sterile H90 slurry, TVC; settings: for TVC cfu/ml 2nd Inoculation / TVC cfu/ml 3rd Inoculation / TVC cfu/ml 1st Inoculation: calcium carbonate 75%, water 25% w/w, H90 slurry; for TVC cfu/ml 1st Inoculation: 3 days at 30° C. after inoculation
Protocol: as §1, §2, §3
50 g sterile slurry H90 with a solid content of 75 wt.-%, based on the total weight of the H90 slurry is supplemented with different concentrations of dry urea. The samples are then stored for 3 days at 30° C. After the storage, the samples are inoculated with 1 ml non-sterile calcium carbonate slurry (H90), incubated for 3 days at 30° C. and the TVC is determined. Samples are further inoculated with 1 ml non-sterile calcium carbonate slurry (H90). Up to three inoculations are performed.

[6] = tested on: non-sterile calcium carbonate slurry (H60), environmental bacteria; assay: Example 3 preservation efficacy: H60 slurry with industrial grade urea solution, non-sterile H60 inoculum, TVC; settings: industrial grade urea 5.5%, calcium carbonate 69%, water 25.5% w/w, 30° C.
Protocol: as §1, §2, §3, §4, §5

[7] = Table 2, urea 2.75%, calcium carbonate 73.1%, water 24.15% w/w, inoculum E. coli, 30° C.
[8] = Table 2, urea 7.6%, calcium carbonate 67.1%, water 25.3% w/w, inoculum E. coli, 30° C.
[9] = Table 3, urea 0.65%, calcium carbonate 75.7%, water 23.65% w/w, inoculum E. coli, 30° C.
[10] = Table 3, urea 1.28%, calcium carbonate 74.9%, water 23.82% w/w, inoculum E. coli, 30° C.
[11] = Table 3, urea 2.75%, calcium carbonate 73.1%, water 24.15% w/w, inoculum E. coli, 30° C.
[12] = Table 2, urea 2.75%, calcium carbonate 73.1%, water 24.15% w/w
[13] = Table 2, urea 7.6%, calcium carbonate 67.1%, water 25.3% w/w
[14] = Table 3, urea 0.65%, calcium carbonate 75.7%, water 23.65% w/w
[15] = Table 3, urea 2.75%, calcium carbonate 73.1%, water 24.15% w/w
[16] = urea 0.40%, calcium carbonate 75.61%, water 23.99% w/w
[17] = urea 1.10%, calcium carbonate 75.48%, water 23.42% w/w
[18] = urea 2.80%, calcium carbonate 75.21%, water 21.98% w/w

In the case of `NC(N)=O` [urea], the “TVC cfu/ml Day 1” value [1] is reported as greater than 1E4 cfu/ml, the “TVC cfu/ml Day 4” value [1] is reported as 300 cfu/ml and the “TVC cfu/ml Day 8” value [1] is reported as less than 100 cfu/ml. For the same compound, the “TVC cfu/ml Day 11” value [1] was less than 100 cfu/ml, the “TVC cfu/ml Day 13” value [1] was less than 100 cfu/ml and the “TVC cfu/ml Day 1” value [2, 7] was less than 100 cfu/ml. The “TVC cfu/ml Day 4” value [2, 7] was less than 100 cfu/ml, the “TVC cfu/ml Day 8” value [2, 7] was 500 cfu/ml and the “TVC cfu/ml Day 13” value [2, 7] was less than 100 cfu/ml. The “TVC cfu/ml Day 1” value [2, 8] was less than 100 cfu/ml, the “TVC cfu/ml Day 4” value [2, 8] was less than 100 cfu/ml and the “TVC cfu/ml Day 8” value [2, 8] was less than 100 cfu/ml. The “TVC cfu/ml Day 13” value [2, 8] was 100 cfu/ml, the “TVC cfu/ml Day 1” value [2, 9] was greater than 1E5 cfu/ml and the “TVC cfu/ml Day 4” value [2, 9] was greater than 1E5 cfu/ml. The “TVC cfu/ml Day 1” value [2, 10] was less than 100 cfu/ml, the “TVC cfu/ml Day 4” value [2, 10] was less than 100 cfu/ml and the “TVC cfu/ml Day 1” value [2, 11] was less than 100 cfu/ml. For the same compound, the “TVC cfu/ml Day 4” value [2, 11] was less than 100 cfu/ml, the “TVC cfu/ml Day 9” value [2, 11] was less than 100 cfu/ml and the “preservation of calcium carbonate slurries from bacterial growth, duration” value ([2]; high urea concentrations, summary of tables 2 and 3, all inocula) was “at least 13 days”. For the same compound, the “TVC cfu/ml Day 4” value [3, 12] was less than 100 cfu/ml, the “TVC cfu/ml Day 8” value [3, 12] was less than 100 cfu/ml and the “TVC cfu/ml Day 13” value [3, 12] was less than 100 cfu/ml. The “TVC cfu/ml Day 1” value [3, 13] was less than 100 cfu/ml, the “TVC cfu/ml Day 4” value [3, 13] was less than 100 cfu/ml and the “TVC cfu/ml Day 8” value [3, 13] was less than 100 cfu/ml. The “TVC cfu/ml Day 13” value [3, 13] was less than 100 cfu/ml, the “TVC cfu/ml Day 1” value [3, 14] was greater than 1E5 cfu/ml and the “TVC cfu/ml Day 4” value [3, 14] was greater than 1E5 cfu/ml. The “TVC cfu/ml Day 4” value [3, 15] was 100 cfu/ml, the “TVC cfu/ml Day 9” value [3, 15] was less than 100 cfu/ml and the “TVC cfu/ml Day 4” value [4, 16] was greater than 1E5 cfu/ml. The “TVC cfu/ml Day 11” value [4, 16] was greater than 1E5 cfu/ml, the “TVC cfu/ml Day 1” value ([4]; urea 0.40%, calcium carbonate 75.61%, water 23.99% w/w, detection limit 100 cfu/ml) was greater than 1E5 cfu/ml and the “TVC cfu/ml Day 1” value [4, 17] was greater than 1E5 cfu/ml. For the same compound, the “TVC cfu/ml Day 4” value [4, 17] was greater than 1E5 cfu/ml, the “TVC cfu/ml Day 11” value [4, 17] was greater than 1E5 cfu/ml and the “TVC cfu/ml Day 1” value [4, 18] was greater than 1E4 cfu/ml. For the same compound, the “TVC cfu/ml Day 4” value [4, 18] was 600 cfu/ml, the “TVC cfu/ml Day 11” value [4, 18] was less than 100 cfu/ml and the “preservation of calcium carbonate slurries from bacterial growth” value ([5]; low urea concentrations (table 1: 0.025-0.075%)) was “not able to preserve”. The “TVC cfu/ml 2nd Inoculation” value ([5]; urea 0.025%) was greater than 1E6 cfu/ml, the “TVC cfu/ml 3rd Inoculation” value ([5]; urea 0.025%) was greater than 1E6 cfu/ml and the “TVC cfu/ml 1st Inoculation” value ([5]; urea 0.025%) was greater than 1E6 cfu/ml. For the same compound, the “TVC cfu/ml 2nd Inoculation” value ([5]; urea 0.05%) was greater than 1E6 cfu/ml, the “TVC cfu/ml 3rd Inoculation” value ([5]; urea 0.05%) was greater than 1E6 cfu/ml and the “TVC cfu/ml 1st Inoculation” value ([5]; urea 0.05%) was greater than 1E6 cfu/ml. For the same compound, the “TVC cfu/ml 2nd Inoculation” value ([5]; urea 0.075%) was greater than 1E6 cfu/ml, the “TVC cfu/ml 3rd Inoculation” value ([5]; urea 0.075%) was greater than 1E6 cfu/ml and the “TVC cfu/ml 1st Inoculation” value ([5]; urea 0.075%) was greater than 1E6 cfu/ml. The “TVC cfu/ml Day 4” value [6] was less than 100 cfu/ml, the “TVC cfu/ml Day 8” value [6] was less than 100 cfu/ml and the “TVC cfu/ml Day 11” value [6] was less than 100 cfu/ml. The “TVC cfu/ml Day 13” value [6] was less than 100 cfu/ml.

Reference: US20220220041A1, “USE OF UREA AS AN ANTIMICROBIAL ADDITIVE IN AN AQUEOUS SUSPENSION” (Omya International AG, priority 2019, published 2022)
